Results reported in patent publication US20190134120A1, “METHODS FOR THE TREATMENT OF BLADDER CANCER” (Viralytics Limited, priority 2013, published 2019).
Read-outs that look alike come from different tables or passages of the source.

Key:
[1] = tested on: bladder cancer cell lines; test: Combination of CVA21 and chemotherapy on cell proliferation, combination index (CalcuSyn); assay type: cell-based, Human; settings: for combination index values: fixed ratio design
Experimental: FIG. 2 c): The effect of the combination of CVA21 and chemotherapy on cell proliferation was assessed by calculating combination index (CI) values using CalcuSyn software (Biosoft).
Combining CVA21 with the chemotherapy agents Mitomycin C and Gemcitabine has shown surprising synergy. […] Preliminary data using the same method has found from the 50% to the 75% effect levels, combination index values of 0.69-0.83 with Gemcitabine (FIG. 2b). In brief, 5637/T24/TCCSUP-1 cells were plated at 1×10^4 cells per well (100 μL) of a 96 well tray and incubated at 37° C. for 24 hrs. Mitomycin C was diluted in 10% FCS medium in doubling dilutions from between 2.8 to 0.02 ug/ml for 5637 cells and between 3.36 to 0.03 ug/ml for T24 cells. CVA21 was then diluted between MOI 25-0.196 in doubling dilutions using each dilution of Mitomycin C. The cells were then treated with each dilution of CVA21/Mitomycin C and incubated for 72 hrs. The medium was removed and 100 μl of diluted MTS reagent (Promega) was added. The plates were then incubated for 1-4 hrs and absorbance read at 492 nm.

bladder cell line T24 = test: Synergy between MMC and CVA21, dose matrix, T24 cells; assay type: cell-based, Human; settings: CVA21 (0-50 TCID50/cell) with MMC (0-3.36 ug/ml), at low mitomycin concentrations, especially below 0.2 ug/ml
Experimental: (§1) In brief, 5637/T24/TCCSUP-1 cells were plated at 1×10^4 cells per well (100 μL) of a 96 well tray and incubated at 37° C. for 24 hrs. Mitomycin C was diluted in 10% FCS medium in doubling dilutions from between 2.8 to 0.02 ug/ml for 5637 cells and between 3.36 to 0.03 ug/ml for T24 cells. CVA21 was then diluted between MOI 25-0.196 in doubling dilutions using each dilution of Mitomycin C. The cells were then treated with each dilution of CVA21/Mitomycin C and incubated for 72 hrs. The medium was removed and 100 μl of diluted MTS reagent (Promega) was added. The plates were then incubated for 1-4 hrs and absorbance read at 492 nm.

[2] = tested on: bladder cancer cell line 5637; test: Synergy between CVA21 and MMC, dose matrix, 5637 cells; assay type: cell-based, Human; settings: MMC 0 to 2.8 ug/ml
Experimental: as §1

[3] = tested on: human bladder tumor tissue; test: Ex vivo infection of human bladder tumour tissue by CVA21 (immunostaining); settings: 3.875x10^6 TCID50 CVA21; 48 hours post infection
Experimental: Primary bladder cancer tissue was received from the operating theatre of the Royal Surrey County Hospital UK in a dry pot. The tissue was cut into small pieces of between 2-4 mm and placed in 0.5 ml 10% FCS/DMEM with Pen/Strep and GLUT containing 3.875×10^6 TCID50 of CVA21. The infected tissue was incubated at 37° C., 5% CO2 for 48 hrs. Tissue was then fixed in 10% neutral buffered formalin for 18-24 hours.
Tissue pieces originating from the same human bladder tumour were either infected with CVA21 or left uninfected. Immunofluorescence and immunostaining for coxsackievirus was performed 48 hours post infection.
In brief, bladder cancer tissue was fixed using 10% neutral buffered formalin for 18-24 hours. After fixation, the tissue block was embedded in paraffin, and 4 μm sections cut and affixed onto slides. The sections were dried overnight at 37° C., deparaffinized, and rehydrated. Endogenous peroxidase was blocked using methanol/0.3% H202 for 20 min. The sections were then subjected to heat mediated antigen retrieval in a microwave using citrate buffer (10 mM, pH 6.0). Following washing, the slides were blocked with 2.5% horse serum and endogenous biotin blocked using an Avidin/Biotin blocking kit (SP-2001, VectorLabs) according to the manufacturer's instructions. […]

[4] = tested on: Patient derived bladder tumour cell line; test: Infection of patient derived primary bladder tumour cells with CVA21; assay type: cell-based, Human; settings: varying MOIs; 72 hours; MTS
Experimental: (§2) Human cancer bladder tissue was disaggregated and primary tumour cells were isolated. These were tested for bladder tumour markers (Cytokeratin 7) (data not shown). Primary tumour cells were infected at varying MOIs and incubated at 37 C for 72 hours then photographed and analysed by MTS ([3-(4,5-dimethylthiazol-2-yl)-5-(3-carboxymethoxyphenyl)-2-(4-sulfophenyl)-2H-tetrazolium, inner salt) assay. (A) CVA21 MOI 3. (B) Uninfected cells. (C) MTS assay. (D) CVA21 (3×10^6 TCID50) was incubated at 37 C for one hour in healthy donor urine. Resulting virus was titrated by TCID50 on SK-MEL-28 cells for 5 days.

[5] = assay type: physicochemical, Human; settings: 3x10^6 TCID50; 37 C for one hour in healthy donor urine
Experimental: as §2
In brief, SK-MEL-28 cells were plated at 1×10^4 cells per well (100 μL) of a 96 well tray in 10% DMEM and incubate at 37° C. o/n. 37.5 ul of stock CVA21 virus (7.75e7 TCID50/ml) was added 462.5 ul of normal health urine or Hanks or PBS or HANKS for 1 hrs at 37° C. After which urine/CVA21 was serially diluted 1:10 in 2% DMEM. The media was removed from the cells and 100 ul of each dilution was added to one of ten wells. The assay was then incubated at 37° C. for 5 days, after which the media was removed from the cells and 100 ul of 0.1% Glutaldehyde (Sigma) in PBS was added. […]. TCID50 is calculated by the Spearman & Kärber algorithm as described in Hierholzer & Killington (1996), Virology Methods Manual, p. […]

[6] = tested on: late stage melanoma patients; settings: Phase I, intratumorally administered, cited from earlier work
[7] = tested on: late stage melanoma patients; settings: Phase II, intralesional treatment, cited from earlier work

With Coxsackievirus A21 [CVA21] the “synergy with sequential dosing” value ([1]; CVA21 administered 4 hours after MMC, compared with concomitant dosing) was “synergy is well maintained”, the combination index values ([1]; CVA21 with Gemcitabine, from the 50% to the 75% effect levels, preliminary data) was 0.69-0.83 and the combination index values ([1]; CVA21 with Mitomycin C, from the 50% to the 90% effect levels) was 0.40-0.55. The CI values (bladder cell line T24) was under 1, the “interaction of CVA21 with MMC” value [2] was “Synergy” and the “infectability of ex-vivo tumour tissue” value [3] was “highly infectable”. For the same substance, the “infectability of primary tumour cells” value [4] was “highly infectable”, the “stability in human urine” value [5] was “stable” and the tolerability ([6]; humans) was “well tolerated”. The “patients with stabilization or reduction in injected tumour volumes” value ([6]; late stage melanoma) was 55.55%, the tolerability [7] was “generally being well-tolerated” and the clinical activity ([7]; late stage melanoma) was “activity in both injected lesions and non-injected distant lesions”.
